Data published in patent publication US20170202973A1 (GENENTECH, INC., priority 2009, published 2017).
Where two headings read alike, the source gives them in different places.

How the values were obtained:
[1] = cited from earlier work
[2] = tested on: HER2-positive metastatic breast cancer; settings: for Patients Censored, % / Patients Censored, number / Patients Progressed, % / Patients Progressed, number: PFS analysis; for CR / Clinical Benefit Rate / Missing tumor response / Objective Response Rate, % / PD / PR / UE: N = 110, updated analysis
Procedure: The analysis of objective response rate was conducted with patient data collected through approximately 26 weeks after the last patient is enrolled in the study. This study enrolled patients with HER2-positive MBC. […] Patients will be required to have HER2-positive status, as evidenced by either 3+ HER2 protein overexpression determined by immunohistochemistry (IHC) or HER2 gene amplification determined by FISH.
Efficacy Assessments: Tumor responses were categorized as complete response (CR), partial response (PR), stable disease (SD), or progressive disease (PD) according to the Response Evaluation Criteria for Solid Tumors (RECIST). Tumor assessments (CT and/or magnetic resonance imaging [MRI] scans) were performed approximately every 6 weeks irrespective of dose delays, interruptions, or reductions. Bone and brain scans (either CT or Mill) were performed at baseline and if clinically indicated during the study. Patient management decisions were made based on tumor assessments performed by investigators. The primary study endpoints related to response were determined by an independent radiologic review of patient scans, with assessments based on investigator reporting being secondary. If each non-target lesion cannot be assessed at a follow-up tumor assessment timepoint, patients may still be considered evaluable for timepoint response as long as all target lesions are measured. Patients with non-target lesions that were not assessed at a timepoint were assessed as having a partial response, stable disease, or progressive disease. All lesions, target and non-target, were assessed before a response was considered confirmed. To reduce the frequency of unevaluable non-target lesions, bone lesions visible on baseline CT scan as non-target lesion(s) for follow-up, were compared with bone lesions identified on the baseline bone scan where possible if lesions are not visible on both modalities or as easily and reproducibly assessed.
Efficacy Assessments: An assessment of the objective response rate, the primary objective of this trial, was based on the RECIST and confirmed by independent review of baseline and follow-up assessments obtained every 6 weeks. All known sites of disease should be reassessed at each timepoint whenever possible. Because bone involvement is a common finding in patients with MBC, a bone scan at baseline may be conducted. In addition, patients with non-target lesions that were not assessed at a timepoint were assessed as having a partial response, stable disease, or progressive disease. All lesions, target and non-target (including bone lesions), were assessed before a complete response can be considered confirmed.
Efficacy Outcome Measures: The primary efficacy outcome measure is objective response (defined as a complete or partial response determined on two consecutive occasions 4 weeks apart), as assessed through independent radiologic review using RECIST. The secondary efficacy outcome measures are as follows: Duration of objective response, as assessed through independent radiologic review using RECIST; PFS, as assessed through independent radiologic review using RECIST; CBR based on independent radiologic review using RECIST; Objective response based on investigator assessments using RECIST; Duration of objective response based on investigator assessments using RECIST; PFS based on investigator assessments using RECIST; and CBR based on investigator assessments using RECIST.
The analysis of objective response rate was conducted with patient data collected through approximately 26 weeks after the last patient was enrolled in the study. In addition, the final analysis of safety and all secondary and exploratory endpoints will be updated with sufficient data when available (estimated to be approximately 10 months after the last patient is enrolled in the study). After the final analysis, the study was closed. […] This study enrolled patients with HER2-positive MBC.

[3] = Investigator, N = 110, initial analysis
[4] = Patients with HER2+ retrospectively confirmed, n = 76, INV, initial analysis
[5] = Patients with HER2+ retrospectively confirmed, n = 76, IRF, initial analysis
[6] = Patients with HER2+ retrospectively confirmed, n = 80, INV, updated analysis
[7] = Patients with HER2+ retrospectively confirmed, n = 80, IRF, updated analysis
[8] = Patients with HER2 normal, n = 15, INV, initial analysis
[9] = Patients with HER2 normal, n = 15, IRF, initial analysis
[10] = of 110 treated, 70 discontinued, data cutoff

In the case of `COc1cc2cc(c1Cl)N(C)C(=O)C[C@H](OC(=O)[C@H](C)N(C)C(C)=O)[C@]1(C)O[C@H]1[C@H](C)[C@@H]1C[C@@](O)(NC(=O)O1)[C@H](OC)/C=C/C=C(\C)C2` [maytansine], the “dose-limiting toxicity (DLT)” value ([1]; approximately 800 patients, 2.0 mg/m^2 every 3 weeks, single dose or 3 consecutive days) is listed as “gastrointestinal” and the “activity in the clinic” value ([1]; at doses that could be safely delivered) is listed as “modest”.
With trastuzumab-MCC-DM1 [T-DM1] the “Patients Censored, %” value ([2]; INV, all treated patients) was 45.5%, the “Patients Censored, number” value ([2]; INV, all treated patients) was 50 patients and the “Patients Progressed, %” value ([2]; INV, all treated patients) was 54.5%. For the same compound, the “Patients Progressed, number” value ([2]; INV, all treated patients) was 60 patients, the “PFS (months) 25-75%” value ([2]; INV, all treated patients) was 2.8-11.1 months and the “Missing tumor response, %” value ([2]; IRF, N = 110, initial analysis) was “(0.9%)”. The “PD, %” value ([2]; IRF, N = 110, initial analysis) was “(18.2%)”, the “PR, %” value ([2]; IRF, N = 110, initial analysis) was “(32.7%)” and the “UE, %” value ([2]; IRF, N = 110, initial analysis) was “(1.8%)”. For the same compound, the CR ([2]; IRF) was 0%, the “Clinical Benefit Rate” value ([2]; IRF) was 48.2% and the Missing tumor response ([2]; IRF) was 0.9%. The “Objective Response Rate, %” value ([2]; IRF) was 34.5%, the PD ([2]; IRF) was 18.2% and the PR ([2]; IRF) was 34.5%. For the same compound, the UE ([2]; IRF) was 1.8%, the “Patients Censored, %” value ([2]; IRF, all treated patients) was 54.5% and the “Patients Censored, number” value ([2]; IRF, all treated patients) was 60 patients. For the same compound, the “Patients Progressed, %” value ([2]; IRF, all treated patients) was 45.5%, the “Patients Progressed, number” value ([2]; IRF, all treated patients) was 50 patients and the “PFS (months) 25-75%” value ([2]; IRF, all treated patients) was 2.6-9.7 months. For the same compound, the “PFS (months) median” value ([2]; IRF, all treated patients, initial analysis) was 7.3 months, the “median PFS” value ([2]; IRF, updated analysis, all treated patients, 95% CI (4.2-8.4)) was 6.9 and the “CR, %” value [2, 3] was “(1.8%)”. The “Missing tumor response, %” value [2, 3] was “(2.7%)”, the “PD, %” value [2, 3] was “(13.6%)” and the “PR, %” value [2, 3] was “(28.2%)”. The “UE, %” value [2, 3] was “(0.9%)”, the CR ([2]; Investigator) was 4.5% and the “Clinical Benefit Rate” value ([2]; Investigator) was 46.4%. For the same compound, the Missing tumor response ([2]; Investigator) was 0.9%, the “Objective Response Rate, %” value ([2]; Investigator) was 32.7% and the PD ([2]; Investigator) was 14.5%. The PR ([2]; Investigator) was 28.2%, the UE ([2]; Investigator) was 0.9% and the “Clinical benefit rate, %” value [2, 4] was 47.4%. For the same compound, the “ORR, %” value [2, 4] was 36.8%, the “Clinical benefit rate, %” value [2, 5] was 52.6% and the “ORR, %” value [2, 5] was 39.5%. The “Clinical benefit rate, %” value [2, 6] was “(53.8%)”, the “ORR, %” value [2, 6] was “(40.0%)” and the “Clinical benefit rate, %” value [2, 7] was “(55.0%)”. The “ORR, %” value [2, 7] was “(41.3%)”, the “Clinical benefit rate, %” value [2, 8] was 20.0% and the “ORR, %” value [2, 8] was 13.3%. The “Clinical benefit rate, %” value [2, 9] was 26.7%, the “ORR, %” value [2, 9] was 20.0% and the “patients that discontinued treatment with progressive disease, %” value [2, 10] was 52.7%. For the same compound, the “patients that discontinued treatment with progressive disease, number” value [2, 10] was 58 patients.
